Consider one compound from patent US4985352A (The Trustees of Columbia University in the City of New York, priority 1989, dated 1991).

The assay deals with NIH3T3 cells. Briefly: Flow cytometry of intracellular Ca2+ in control untransfected NIH3T3 cells. Conditions: untransfected NIH3T3 cells loaded with indo-1. Format: cell-based, mouse. (In flow cytometry, cells or beads pass a laser one at a time.)

Take `NCCc1c[nH]c2ccc(O)cc12` [serotonin, 5-hydroxytryptamine]: the “Intracellular Ca2+ response to serotonin” value is given as “did not respond”.
